From BindingDB's records for doi:10.1016/j.chembiol.2006.12.006 (Research Institute, Hospital For Sick Children, 2007)

biological target: T1, Beta-hexosaminidase subunit alpha (Homo sapiens, UniProt P06865); assay: Enzyme Inhibition Assay; settings: 25 °C
T1 sequence (P06865 whole entry): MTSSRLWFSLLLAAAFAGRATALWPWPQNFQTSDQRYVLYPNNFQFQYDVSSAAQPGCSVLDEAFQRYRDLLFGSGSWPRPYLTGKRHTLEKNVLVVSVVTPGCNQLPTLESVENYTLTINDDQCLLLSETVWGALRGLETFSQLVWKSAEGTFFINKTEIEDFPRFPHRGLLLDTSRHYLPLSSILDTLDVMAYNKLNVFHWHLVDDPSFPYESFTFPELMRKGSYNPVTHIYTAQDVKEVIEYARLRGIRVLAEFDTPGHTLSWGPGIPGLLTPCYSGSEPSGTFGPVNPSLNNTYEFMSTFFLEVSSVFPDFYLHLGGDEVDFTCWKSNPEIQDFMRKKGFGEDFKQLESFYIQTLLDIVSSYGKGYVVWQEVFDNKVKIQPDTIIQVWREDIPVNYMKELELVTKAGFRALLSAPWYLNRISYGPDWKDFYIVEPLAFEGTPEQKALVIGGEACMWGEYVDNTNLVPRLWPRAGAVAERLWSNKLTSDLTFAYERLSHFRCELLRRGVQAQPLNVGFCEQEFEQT
From the text: Enzyme assay based on 4-MU substrates with HTS to identify inhibitory compounds for Hex.

IC50 [µM]	SMILES
16	O=C1c2cccc3cccc(c23)C(=O)N1CCCO [5141402]
108	O=C1c2cccc3cccc(c23)C(=O)N1CCCc1ccccn1 [M-31862]
31	CC(O)CCN1C(=O)c2cccc3cccc(c23)C1=O (stereo not given) [M-31867]
138	O=C1c2cccc3cccc(c23)C(=O)N1CC1CCCO1 (stereo not given) [M-31860]
18	O=C1NC(=O)c2cccc3cccc1c23 [BTB12933]
